From ChEMBL document CHEMBL1201862, “PubChem BioAssay data set” (2004)
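Grown in 96-well plates, cells were treated for 48 hours with each compound at five concentrations. Insufficient inhibition: endpoint recorded as highest concentration tested. Here, GI50 denotes the concentration required for 50% inhibition of growth.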 Calls of active or inactive are those of the source. Rule as the data show it: active = GI50 up to about 1.1 µM and inactive = higher.

Columns and labels:
Test in all cases: inhibition of tumour cell growth, NCI panel, 48 h
[1] = tested on: 786-0
[2] = tested on: A498
[3] = tested on: A549
[4] = tested on: ACHN
[5] = tested on: CAKI-1
[6] = tested on: CCRF-CEM
[7] = tested on: COLO 205
[8] = tested on: DLD-1
[9] = tested on: DMS-114
[10] = tested on: EKVX
[11] = tested on: HCC 2998
[12] = tested on: HCT-116
[13] = tested on: HCT-15
[14] = tested on: HL-60
[15] = tested on: HOP-18
[16] = tested on: HOP-62
[17] = tested on: HOP-92
[18] = tested on: HT-29
[19] = tested on: IGROV-1
[20] = tested on: K562
[21] = tested on: KM-20L2
[22] = tested on: KM12
[23] = tested on: LOX IMVI
[24] = tested on: LXFL 529
[25] = tested on: M14
[26] = tested on: M19-MEL
[27] = tested on: MOLT-4
[28] = tested on: Malme-3M
[29] = tested on: NCI-H226
[30] = tested on: NCI-H23
[31] = tested on: NCI-H460
[32] = tested on: NCI-H522
[33] = tested on: OVCAR-3
[34] = tested on: OVCAR-4
[35] = tested on: OVCAR-5
[36] = tested on: OVCAR-8
[37] = tested on: RPMI-8226
[38] = tested on: RXF 393
[39] = tested on: RXF 631
[40] = tested on: SF-268
[41] = tested on: SF-295
[42] = tested on: SF-539
[43] = tested on: SK-MEL-28
[44] = tested on: SK-MEL-5
[45] = tested on: SK-OV-3
[46] = tested on: SN12C
[47] = tested on: SNB-19
[48] = tested on: SNB-75
[49] = tested on: SNB-78
[50] = tested on: SR
[51] = tested on: SW-620
[52] = tested on: TK-10
[53] = tested on: U-251
[54] = tested on: UACC-257
[55] = tested on: UACC-62
[56] = tested on: UO-31
[57] = tested on: DMS-273
[58] = tested on: SK-MEL-2

Measured: GI50

CC1=CCP(C(F)(F)F)P(C(F)(F)F)C1 (stereo not given)
> 100 µM: [13]
inactive: [1] > 100 µM | [2] > 100 µM | [3] > 100 µM | [4] > 100 µM | [5] > 100 µM | [6] > 100 µM | [7] > 100 µM | [8] > 100 µM | [9] > 100 µM | [10] > 100 µM | [11] > 100 µM | [12] > 100 µM | [14] > 100 µM | [15] > 100 µM | [16] > 100 µM | [17] > 100 µM | [18] > 100 µM | [19] > 100 µM | [20] > 100 µM | [21] > 100 µM | [22] > 100 µM | [23] > 100 µM | [24] > 100 µM | [25] > 100 µM | [26] > 100 µM | [27] > 100 µM | [28] > 100 µM | [29] > 100 µM | [30] > 100 µM | [31] > 100 µM | [32] > 100 µM | [33] > 100 µM | [34] > 100 µM | [35] > 100 µM | [36] > 100 µM | [37] > 100 µM | [38] 5.55 µM | [39] > 100 µM | [40] > 100 µM | [41] > 100 µM | [42] > 100 µM | [43] > 100 µM | [44] > 100 µM | [45] > 100 µM | [46] > 100 µM | [47] > 100 µM | [48] > 100 µM | [49] > 100 µM | [50] > 100 µM | [51] > 100 µM | [52] > 100 µM | [53] > 100 µM | [54] > 100 µM | [55] > 100 µM | [56] > 100 µM

Cn1cnc([N+](=O)[O-])c1Sc1nnc(-c2ccc(Cl)cc2)n1C
inactive: [1] > 10 µM | [2] 27.8 µM | [3] 48.9 µM | [4] 15.1 µM | [5] 15.9 µM | [6] 3.69 µM | [7] 11.9 µM | [8] 11 µM | [9] 15.8 µM | [57] 16.4 µM | [10] 5.79 µM | [11] 17.9 µM | [12] 13.1 µM | [15] 5.25 µM | [16] > 100 µM | [17] 12.1 µM | [18] 15 µM | [19] 16.7 µM | [20] 10.7 µM | [22] 20.1 µM | [23] 7.67 µM | [24] 10.4 µM | [25] 13.6 µM | [26] 14.1 µM | [27] 6.78 µM | [28] 10.6 µM | [29] 21.2 µM | [30] 16.6 µM | [31] 20.7 µM | [32] 3.17 µM | [33] 13.9 µM | [34] 13.7 µM | [35] 20.5 µM | [36] 17.5 µM | [37] 16.4 µM | [38] 3.15 µM | [39] 15.6 µM | [40] 20.3 µM | [41] 50 µM | [42] 16.2 µM | [43] 14.2 µM | [58] 15.5 µM | [45] 51.2 µM | [46] 14.7 µM | [47] 98.2 µM | [48] 17.7 µM | [49] 13.2 µM | [50] 7.41 µM | [51] 11.3 µM | [52] 17.7 µM | [53] 16.3 µM | [54] 12.7 µM | [55] 15.5 µM | [56] 14.6 µM
